Legend:
RPE = assay: AAV1-BEST1-Cre-induced RPE degeneration in Dicer1 f/f mice; assay type: in vivo; settings: peptide intravitreous
Experimental: Subretinal injections (1 μL) in mice were performed using a Pico-Injector (PLI-100, Harvard Apparatus). In vivo transfection of plasmids coding for two different Alu sequences (pAlu) or empty control vector (pNull) (Bennett et al., 2008; Kaneko et al., 2011; Shaikh et al., 1997) was achieved using 10% Neuroporter (Genlantis). AAV1-BEST1-Cre (Alexander and Hauswirth, 2008) or AAV1-BEST1-GFP were injected at 1.0×10^11 pfu/mL and in vitro transcribed Alu RNA was injected at 0.3 mg/mL. […]

IRAK1/4 phosphorylation = IRAK1/4 phosphorylation in human RPE cells (Western blot); assay type: cell-based; settings: human RPE cells; normalized to Vinculin
Experimental: (§1) Protein abundance was assessed by Western blot analysis using antibodies against Caspase-1 (1:500; Invitrogen), pIRAK1 (1:500; Thermo Scientific), pIRAK4 (1:500, Abbomax), PYCARD (1:200, Santa Cruz Biotechnology), NLRP3 (1:500, Enzo Life Sciences) and Vinculin (1:1,000; Sigma-Aldrich). Caspase-1 activity was visualized using Caspalux1 E1D2 (Oncolmmunin) according to manufacturer's instructions.
(§2) Tissues or cells were homogenized in lysis buffer (10 mM Tris base, pH 7.4, 150 mM NaCl, 1 mM EDTA, 1 mM EGTA, 1% Triton X-100, 0.5% NP-40, protease and phosphatase inhibitor cocktail (Roche)). Protein concentrations were determined using a Bradford assay kit (Bio-Rad) with bovine serum albumin as a standard. Proteins (40-100 μg) were run on NuPAGE Bis-Tris gels (Invitrogen) and transferred to Immun-Blot PVDF membranes (Bio-Rad). Cells were scraped in hot Laemmli buffer (62.5 mM Tris base, pH 6.8, 2% SDS, 5% 2-Mercaptoethanol, 10% Glycerol, 0.01% Bromophenol Blue). Samples were boiled and run on 4-20% NuPAGE Tris-Glycine gels (Invitrogen). The transferred membranes were blocked for 1 h at RT and incubated with antibodies against human Caspase-1 (1:500; Invitrogen), mouse Caspase 1 (1:500; MBL), NLRP3 (1:1000; Enzo Life Sciences), PYCARD (1:1000, RayBiotech), phospho-IRAK1 (S376) (1:500, Thermo Scientific), phospho-IRAK4 (T345) (1:500, AbboMax), DICER1 (1:2,000; Bethyl), MyD88 (1:1,000; Cell Signaling), and mouse IL-18 (1:200; MBL) at 4° C. overnight. Protein loading was assessed by immunoblotting using an anti-Vinculin antibody (1:1,000; Sigma-Aldrich). The secondary antibodies were used (1:5,000) for 1 h at RT. The signal was visualized by enhanced chemiluminescence (ECL plus) and captured by VisionWorksLS Image Acquisition and Analysis software (Version 6.7.2, UVP, LLC).

Caspase-1 = target: T1, Caspase-1 (Homo sapiens, UniProt P29466); assay: Caspase-1 activation in human RPE cells (Western blot p20, Caspalux substrate cleavage); assay type: cell-based; settings: for Alu RNA-induced Caspase-1 substrate cleavage: Caspalux fluorescent substrate
T1 construct: Primary human RPE cells were isolated as previously described; endogenous in cells; host or cells: primary human RPE cells
T1 sequence (P29466 120-297 limits assumed): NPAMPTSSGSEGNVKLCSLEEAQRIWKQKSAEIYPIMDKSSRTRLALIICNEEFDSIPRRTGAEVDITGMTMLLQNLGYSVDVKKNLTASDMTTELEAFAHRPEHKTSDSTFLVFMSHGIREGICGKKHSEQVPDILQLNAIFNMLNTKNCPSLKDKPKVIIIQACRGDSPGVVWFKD
T1 sequence (P29466 317-404 limits assumed): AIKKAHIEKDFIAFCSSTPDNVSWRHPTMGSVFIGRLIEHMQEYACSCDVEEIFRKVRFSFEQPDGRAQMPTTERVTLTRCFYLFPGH
Experimental: as §1, §2
Caspase-1 activity. Caspase-1 activity was visualized by incubating cells with Caspalux1E1D2 reagent (Oncolmmunin) according to the manufacturer's instructions. Caspalux1E1D2 signal was quantified reading the fluorescence (excitation 552 nm, emission 580 nm) using a Synergy 4 reader (Biotek). Quantification of fluorescence from images was performed by converting images into grayscale in Adobe Photoshop CSS, and measuring the integrated density of black and white images using ImageJ software (NIH) (Bogdanovich et al., 2008).

Row | Substance | AAV1-BEST1-Cre-induced RPE degeneration (RPE) | Alu RNA-induced IRAK1/4 phosphorylation (IRAK1/4 phosphorylation) | Alu RNA-induced Caspase-1 substrate cleavage (Caspase-1; listed as Caspase-1-inhibitory peptide) | Alu RNA-induced Caspase-1 substrate cleavage (Caspase-1; listed as Caspase-1 inhibitor peptide) | Alu RNA-induced Caspase-1 substrate cleavage (Caspase-1) | Alu RNA-induced Caspase-1 activation (p20 subunit) (Caspase-1; Western blot)
1 | Z-WEHD-FMK | blocked | reduced | blocked Alu RNA-induced substrate cleavage | blocks |  | 
2 | DRQIKIWFQNRRMKWKKRDVLPGT [MyD88 inhibitory peptide] | blocked | reduces |  |  | does not reduce | unaffected
